In patent publication US9932314B2, “Pyrazole compounds and their use as T-type calcium channel blockers” (IDORSIA PHARMACEUTICALS LTD, priority 2015, dated 2018) one finds IC50 data, which are given here for 35 compounds.

This test concerns the target T1, voltage-dependent T-type calcium channel subunit alpha-1G (Cav3.2) (Homo sapiens, UniProt O95180).
T1 construct: expressed in transfected cells; host or cells: HEK293
The experiment in a line: FLIPR calcium flux assay, HEK293 cells recombinantly expressing Cav3.2. In kind it is cell-based. To be noted: Cav3.2-channel, Fluo-4-AM, 3 min incubation, stimulation with 10 mM CaCl2. In outline:
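HEK293 cells stably expressing human Cav3.2 were loaded with Fluo-4-AM. Compounds diluted in TEAC buffer (pH 7.2) were preincubated for 3 min, then Ca2+ entry was triggered by 10 mM final CaCl2. Inhibition curves were fitted sigmoidally to the area under the fluorescence trace.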

The IC50 is the concentration that gives 50% inhibition.

T1 sequence (O95180 whole entry): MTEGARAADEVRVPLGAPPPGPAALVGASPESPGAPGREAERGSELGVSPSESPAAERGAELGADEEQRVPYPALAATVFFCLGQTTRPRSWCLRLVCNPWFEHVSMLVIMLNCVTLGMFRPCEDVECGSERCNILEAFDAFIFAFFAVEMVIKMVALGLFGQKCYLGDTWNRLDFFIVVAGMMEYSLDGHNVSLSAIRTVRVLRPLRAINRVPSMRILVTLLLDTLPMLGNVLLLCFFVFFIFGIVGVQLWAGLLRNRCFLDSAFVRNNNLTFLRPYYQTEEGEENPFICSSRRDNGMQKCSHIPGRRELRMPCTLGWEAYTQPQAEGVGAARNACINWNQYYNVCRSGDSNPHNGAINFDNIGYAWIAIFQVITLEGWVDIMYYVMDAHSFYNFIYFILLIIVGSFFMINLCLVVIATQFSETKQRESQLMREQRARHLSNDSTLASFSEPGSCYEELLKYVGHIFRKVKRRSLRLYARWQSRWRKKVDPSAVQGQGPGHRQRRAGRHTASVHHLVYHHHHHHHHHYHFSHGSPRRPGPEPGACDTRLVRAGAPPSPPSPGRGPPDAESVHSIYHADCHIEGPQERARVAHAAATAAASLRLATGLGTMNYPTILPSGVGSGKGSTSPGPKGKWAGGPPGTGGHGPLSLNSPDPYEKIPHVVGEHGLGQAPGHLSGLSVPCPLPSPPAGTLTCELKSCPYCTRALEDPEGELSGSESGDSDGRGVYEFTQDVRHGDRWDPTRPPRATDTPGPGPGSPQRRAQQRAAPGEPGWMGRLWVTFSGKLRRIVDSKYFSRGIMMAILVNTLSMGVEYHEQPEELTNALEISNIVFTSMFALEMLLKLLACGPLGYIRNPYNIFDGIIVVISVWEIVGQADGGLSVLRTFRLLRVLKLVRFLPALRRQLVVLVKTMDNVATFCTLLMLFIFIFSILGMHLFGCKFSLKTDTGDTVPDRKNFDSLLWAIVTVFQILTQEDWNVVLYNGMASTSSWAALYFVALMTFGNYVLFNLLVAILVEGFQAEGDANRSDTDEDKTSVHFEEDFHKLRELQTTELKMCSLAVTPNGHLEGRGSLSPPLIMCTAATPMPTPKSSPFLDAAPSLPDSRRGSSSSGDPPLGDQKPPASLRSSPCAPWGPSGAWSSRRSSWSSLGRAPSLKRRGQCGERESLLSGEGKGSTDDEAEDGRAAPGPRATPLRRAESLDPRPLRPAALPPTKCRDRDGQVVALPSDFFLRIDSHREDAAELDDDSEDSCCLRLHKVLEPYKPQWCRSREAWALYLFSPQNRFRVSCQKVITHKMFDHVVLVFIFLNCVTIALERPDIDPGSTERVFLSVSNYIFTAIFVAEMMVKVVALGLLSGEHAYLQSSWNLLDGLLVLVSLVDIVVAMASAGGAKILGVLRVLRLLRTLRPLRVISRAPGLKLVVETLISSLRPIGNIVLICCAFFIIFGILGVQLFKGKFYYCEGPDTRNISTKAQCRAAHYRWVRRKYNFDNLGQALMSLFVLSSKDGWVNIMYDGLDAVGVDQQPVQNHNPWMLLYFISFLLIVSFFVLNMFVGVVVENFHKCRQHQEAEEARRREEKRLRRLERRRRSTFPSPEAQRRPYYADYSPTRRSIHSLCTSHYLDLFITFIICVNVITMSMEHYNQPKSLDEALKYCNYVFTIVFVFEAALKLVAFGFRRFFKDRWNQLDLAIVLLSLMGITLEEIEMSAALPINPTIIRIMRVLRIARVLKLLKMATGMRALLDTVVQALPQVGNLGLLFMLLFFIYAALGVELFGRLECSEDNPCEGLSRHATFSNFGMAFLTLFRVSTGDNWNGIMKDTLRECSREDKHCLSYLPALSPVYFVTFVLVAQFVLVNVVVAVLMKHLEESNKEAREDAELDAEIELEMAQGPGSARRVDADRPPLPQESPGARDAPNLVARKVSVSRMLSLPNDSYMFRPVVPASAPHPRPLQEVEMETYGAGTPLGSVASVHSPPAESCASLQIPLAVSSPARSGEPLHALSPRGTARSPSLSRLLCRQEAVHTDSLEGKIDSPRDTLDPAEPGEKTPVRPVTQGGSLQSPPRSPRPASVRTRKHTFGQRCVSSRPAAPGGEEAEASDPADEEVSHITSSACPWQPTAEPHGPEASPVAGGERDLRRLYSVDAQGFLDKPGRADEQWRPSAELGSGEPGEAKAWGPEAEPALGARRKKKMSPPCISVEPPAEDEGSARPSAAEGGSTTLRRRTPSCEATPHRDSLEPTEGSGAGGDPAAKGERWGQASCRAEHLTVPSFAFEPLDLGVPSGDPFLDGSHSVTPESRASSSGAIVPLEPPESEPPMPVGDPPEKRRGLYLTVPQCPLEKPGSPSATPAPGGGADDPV

For `Cn1ncc2ccc(CC(=O)Nc3ccn(Cc4ccc(F)c(C#N)c4)n3)cc21` [Example 308, N-[1-(3-Cyano-4-fluoro-benzyl)-1H-pyrazol-3-yl]-2-(1-methyl-1H-indazol-6-yl)-acetamide], the IC50 was 263 nM.

As to `Cn1ccc2ccc(CC(=O)Nc3ccn(Cc4ccc(F)c(C#N)c4)n3)cc21` [Example 309, N-[1-(3-Cyano-4-fluoro-benzyl)-1H-pyrazol-3-yl]-2-(1-methyl-1H-indol-6-yl)-acetamide], the IC50 worked out at 27 nM. For `Cn1ccc2cc(CC(=O)Nc3ccn(Cc4ccc(F)c(C#N)c4)n3)ccc21` [Example 310, N-[1-(3-Cyano-4-fluoro-benzyl)-1H-pyrazol-3-yl]-2-(1-methyl-1H-indol-5-yl)-acetamide], the IC50 is 13 nM.

Turning to `CC1(COc2ccc(CC(=O)Nc3ccn(Cc4ccc(F)c(C#N)c4)n3)cc2)CC(F)(F)C1` [Example 311, N-[1-(3-Cyano-4-fluoro-benzyl)-1H-pyrazol-3-yl]-2-[4-(3,3-difluoro-1-methyl-cyclobutylmethoxy)-phenyl]-acetamide], the IC50 was 81 nM.

Consider `N#Cc1cc(Cn2ccc(NC(=O)Cc3ccc(C4CC(F)(F)C4)cc3)n2)ccc1F` [Example 312, N-[1-(3-Cyano-4-fluoro-benzyl)-1H-pyrazol-3-yl]-2-[4-(3,3-difluoro-cyclobutyl)-phenyl]-acetamide], for which the IC50 was found to be 10 nM. With `N#Cc1cc(Cn2ccc(NC(=O)Cc3ccc(OCC4CC(F)(F)C4)cc3)n2)ccc1F` [Example 313, N-[1-(3-Cyano-4-fluoro-benzyl)-1H-pyrazol-3-yl]-2-[4-(3,3-difluoro-cyclobutylmethoxy)-phenyl]-acetamide], the IC50 was found to be 45 nM. Consider `N#Cc1cc(Cn2ccc(NC(=O)Cc3ccc(C4(C(F)(F)F)CC4)cc3)n2)ccc1F` [Example 314, N-[1-(3-Cyano-4-fluoro-benzyl)-1H-pyrazol-3-yl]-2-[4-(1-trifluoromethyl-cyclopropyl)-phenyl]-acetamide], for which the IC50 is 32 nM. For the compound `O=C(Cc1ccc(C2(F)COC2)nc1)Nc1ccn(Cc2ccc(F)c(F)c2)n1` [Example 315, N-[1-(3,4-Difluoro-benzyl)-1H-pyrazol-3-yl]-2-[6-(3-fluoro-oxetan-3-yl)-pyridin-3-yl]-acetamide], the IC50 is 240 nM. `CC1(c2ccc(CC(=O)Nc3ccn(Cc4ccc(F)c(C#N)c4)n3)cc2)COC1` [Example 316, N-[1-(3-Cyano-4-fluoro-benzyl)-1H-pyrazol-3-yl]-2-[4-(3-methyl-oxetan-3-yl)-phenyl]-acetamide]: the IC50 came out at 36 nM.

With `CC1(c2ccc(CC(=O)Nc3ccn(Cc4ccc(C#N)cc4)n3)cc2)COC1` [Example 317, N-[1-(4-Cyano-benzyl)-1H-pyrazol-3-yl]-2-[4-(3-methyl-oxetan-3-yl)-phenyl]-acetamide], the IC50 was determined as 56 nM. Consider `CC1(c2ccc(CC(=O)Nc3ccn(Cc4ccc(C#N)cn4)n3)cc2)COC1` [Example 318, N-[1-(5-Cyano-pyridin-2-ylmethyl)-1H-pyrazol-3-yl]-2-[4-(3-methyl-oxetan-3-yl)-phenyl]-acetamide], for which the IC50 came out at 378 nM. The result for `Cc1cn(C)c2ncc(CC(=O)Nc3ccn(Cc4ccc(F)c(C#N)c4)n3)cc12` [Example 321, N-[1-(3-Cyano-4-fluoro-benzyl)-1H-pyrazol-3-yl]-2-(1,3-dimethyl-1H-pyrrolo[2,3-b]pyridin-5-yl)-acetamide] reads 91 nM; that for `Cc1cn(C)c2ncc(CC(=O)Nc3ccn(Cc4ccc(C#N)cn4)n3)cc12` [Example 322, N-[1-(5-Cyano-pyridin-2-ylmethyl)-1H-pyrazol-3-yl]-2-(1,3-dimethyl-1H-pyrrolo[2,3-b]pyridin-5-yl)-acetamide], 856 nM.

Turning to `Cn1cc(C2CCC2)c2cc(CC(=O)Nc3ccn(Cc4ccc(C#N)cn4)n3)ccc21` [Example 323, N-[1-(5-Cyano-pyridin-2-ylmethyl)-1H-pyrazol-3-yl]-2-(3-cyclobutyl-1-methyl-1H-indol-5-yl)-acetamide], the IC50 came out at 36 nM.

With `CC(C)c1cn(C)c2ccc(CC(=O)Nc3ccn(Cc4ccc(C#N)cn4)n3)cc12` [Example 324, N-[1-(5-Cyano-pyridin-2-ylmethyl)-1H-pyrazol-3-yl]-2-(3-isopropyl-1-methyl-1H-indol-5-yl)-acetamide], the IC50 amounted to 31 nM. Take `Cn1cc(C#N)c2cc(CC(=O)Nc3ccn(Cc4ccc(C#N)cn4)n3)ccc21` [Example 325, 2-(3-Cyano-1-methyl-1H-indol-5-yl)-N-[1-(5-cyano-pyridin-2-ylmethyl)-1H-pyrazol-3-yl]-acetamide]: the IC50 stood at 893 nM. The result for `Cn1cc(C(F)(F)F)c2cc(CC(=O)Nc3ccn(Cc4ccc(C#N)cn4)n3)ccc21` [Example 326, N-[1-(5-Cyano-pyridin-2-ylmethyl)-1H-pyrazol-3-yl]-2-(1-methyl-3-trifluoromethyl-1H-indol-5-yl)-acetamide] reads 33 nM; that for `Cn1cc(C2CCC2)c2cc(CC(=O)Nc3ccn(Cc4ccc(F)c(C#N)c4)n3)ccc21` [Example 327, N-[1-(3-Cyano-4-fluoro-benzyl)-1H-pyrazol-3-yl]-2-(3-cyclobutyl-1-methyl-1H-indol-5-yl)-acetamide], 37 nM; that for `CC(C)c1cn(C)c2ccc(CC(=O)Nc3ccn(Cc4ccc(F)c(C#N)c4)n3)cc12` [Example 328, N-[1-(3-Cyano-4-fluoro-benzyl)-1H-pyrazol-3-yl]-2-(3-isopropyl-1-methyl-1H-indol-5-yl)-acetamide], 33 nM. As for `Cn1cc(C#N)c2cc(CC(=O)Nc3ccn(Cc4ccc(F)c(C#N)c4)n3)ccc21` [Example 329, N-[1-(3-Cyano-4-fluoro-benzyl)-1H-pyrazol-3-yl]-2-(3-cyano-1-methyl-1H-indol-5-yl)-acetamide], the figure is 80 nM; as for `Cc1cn(C)c2cc(CC(=O)Nc3ccn(Cc4ccc(F)c(C#N)c4)n3)ccc12` [Example 330, N-[1-(3-Cyano-4-fluoro-benzyl)-1H-pyrazol-3-yl]-2-(1,3-dimethyl-1H-indol-6-yl)-acetamide], 4.8 nM. The result for `Cc1cn(C)c2cc(CC(=O)Nc3ccn(Cc4ccc(C#N)cn4)n3)ccc12` [Example 331, N-[1-(5-Cyano-pyridin-2-ylmethyl)-1H-pyrazol-3-yl]-2-(1,3-dimethyl-1H-indol-6-yl)-acetamide] reads 9.6 nM; that for `N#Cc1cc(Cn2ccc(NC(=O)Cc3ccc(F)cc3OCC(F)(F)F)n2)ccc1F` [Example 332, N-[1-(3-Cyano-4-fluoro-benzyl)-1H-pyrazol-3-yl]-2-[4-fluoro-2-(2,2,2-trifluoro-ethoxy)-phenyl]-acetamide], 600 nM. As for `N#Cc1ccc(Cn2ccc(NC(=O)Cc3ccc(F)cc3OCC(F)(F)F)n2)nc1` [Example 333, N-[1-(5-Cyano-pyridin-2-ylmethyl)-1H-pyrazol-3-yl]-2-[4-fluoro-2-(2,2,2-trifluoro-ethoxy)-phenyl]-acetamide], the IC50 is 2790 nM. In the case of `N#Cc1cc(Cn2ccc(NC(=O)Cc3ccc(S(F)(F)(F)(F)F)cc3)n2)ccc1F` [Example 334, N-(1-(3-cyano-4-fluorobenzyl)-1H-pyrazol-3-yl)-2-(4-(pentafluoro-λ^6-sulfanyl)phenyl)acetamide], the IC50 stood at 21 nM. The result for `CC(C)(C#N)c1ccc(CC(=O)Nc2ccn(Cc3ccc(F)c(C#N)c3)n2)cc1` [Example 335, 2-[4-(Cyano-dimethyl-methyl)-phenyl]-N-[1-(3-cyano-4-fluoro-benzyl)-1H-pyrazol-3-yl]-acetamide] reads 20 nM; that for `N#Cc1ccc(Cn2ccc(NC(=O)Cc3ccc(S(F)(F)(F)(F)F)cc3)n2)nc1` [Example 336, N-(1-((5-cyanopyridin-2-yl)methyl)-1H-pyrazo1-3-yl)-2-(4-(pentafluoro-λ^6-sulfanyl)phenyl)acetamide], 34 nM. `CC(C)(C#N)c1ccc(CC(=O)Nc2ccn(Cc3ccc(C#N)cn3)n2)cc1` [Example 337, 2-[4-(Cyano-dimethyl-methyl)-phenyl]-N-[1-(5-cyano-pyridin-2-ylmethyl)-1H-pyrazol-3-yl]-acetamide]: the IC50 was determined as 168 nM. Turning to `N#Cc1ccc(Cn2ccc(NC(=O)Cc3ccc(C(F)(F)F)cc3)n2)nc1` [Example 338, N-[1-(5-Cyano-pyridin-2-ylmethyl)-1H-pyrazol-3-yl]-2-(4-trifluoromethyl-phenyl)-acetamide], the IC50 is 61 nM. As for `N#Cc1cc(Cn2ccc(NC(=O)Cc3cnc(N4CCCC4)c(F)c3)n2)ccc1F` [Example 340, N-[1-(3-Cyano-4-fluoro-benzyl)-1H-pyrazol-3-yl]-2-(5-fluoro-6-pyrrolidin-1-yl-pyridin-3-yl)-acetamide], the figure is 8.5 nM; as for `N#Cc1ccc(Cn2ccc(NC(=O)Cc3cnc(N4CCCC4)c(F)c3)n2)nc1` [Example 341, N-[1-(5-Cyano-pyridin-2-ylmethyl)-1H-pyrazol-3-yl]-2-(5-fluoro-6-pyrrolidin-1-yl-pyridin-3-yl)-acetamide], 64 nM. On to `N#Cc1cc(Cn2ccc(NC(=O)Cc3ccc(C(F)(F)F)cc3)n2)ccc1F` [Example 342, N-[1-(3-Cyano-4-fluoro-benzyl)-1H-pyrazol-3-yl]-2-(4-trifluoromethyl-phenyl)-acetamide], for which the IC50 was 40 nM. As to `Cc1cc(CC(=O)Nc2ccn(Cc3ccc(F)c(C#N)c3)n2)ccc1OCC(F)(F)F` [Example 343, N-[1-(3-Cyano-4-fluoro-benzyl)-1H-pyrazol-3-yl]-2-[3-methyl-4-(2,2,2-trifluoro-ethoxy)-phenyl]-acetamide], the IC50 stood at 4.5 nM.

Take `Cn1ncc2cc(CC(=O)Nc3ccn(Cc4cc(F)c(C#N)c(F)c4)n3)ccc21` [Example 344, N-[1-(4-Cyano-3,5-difluoro-benzyl)-1H-pyrazol-3-yl]-2-(1-methyl-1H-indazol-5-yl)-acetamide]: the IC50 came out at 52 nM. The result for `Cn1ncc2ccc(CC(=O)Nc3ccn(Cc4cc(F)c(C#N)c(F)c4)n3)cc21` [Example 346, N-[1-(4-Cyano-3,5-difluoro-benzyl)-1H-pyrazol-3-yl]-2-(1-methyl-1H-indazol-6-yl)-acetamide] reads 159 nM.
